Here are results for 3 compounds from patent US7307097B2, “Chemical compounds” (SmithKline Beechman Corporation, priority 2001, dated 2007).

The target in assay [1] is T1, human VEGFR3 catalytic domain (Homo sapiens, UniProt P35916, H890Q).
T1 construct: made in house; host or cells: Sf9 insect cells (baculovirus, pFastBac1)
The assay can be described thus: VEGFR-3 homogenous time-resolved fluorescence assay (VEGFR-3-HTRF). Format: biochemical. To be noted: 75 μM ATP, 1 nM enzyme. The source says: VEGFR-3—Homogenous Time-resolved Fluorescence Assay (VEGFR-3-HTRF)
This assay assesses Vascular Endothelial Growth Factor 3 (VEGFR3) tyrosine kinase inhibitory activity in substrate phosphorylation assays. The assay examines the ability of small molecule organic compounds to inhibit the tyrosine phosphorylation of a peptide substrate.
The substrate phosphorylation assays use the VEGFR3 catalytic domain, which is expressed in Sf. 9 insect cells as an amino-terminal GST-tagged fusion protein. The catalytic domain of human VEGFR3 (AA residues #819-1298 based upon GenBank Accession #XM003852) is cloned by PCR from human Placenta Marathon Ready cDNA (Clontech). The PCR product is subcloned into pFastBac1 vector containing an N-terminal GST tag. […]
200 nM VEGFR3 enzyme is activated for 45 minutes at room temperature by incubating the enzyme in buffer containing 100 mM HEPES (pH7.2), 75 μM ATP, 0.3 mM DTT, 0.1 mg/mL BSA, and 10 mM MgCl2. […] Assay plates are left unsealed and are counted in a Wallac Multilabel Counter 1420 (PerkinElmer).
The data for dose responses are plotted as % Control calculated with the data reduction formula 100*(U1-C2)/(C1-C2) versus concentration of compound where U is the unknown value, C1 is the average control value obtained for DMSO, and C2 is the average control value obtained for 0.1M EDTA. […]
(In general: In TR-FRET formats the signal depends on donor and acceptor labels being close together.)

The target of assay [2] is T2, GST-TIE2 (intracellular domains of human TIE2) (Homo sapiens, UniProt Q02763).
T2 construct: made in house
T2 sequence (Q02763 762-1104): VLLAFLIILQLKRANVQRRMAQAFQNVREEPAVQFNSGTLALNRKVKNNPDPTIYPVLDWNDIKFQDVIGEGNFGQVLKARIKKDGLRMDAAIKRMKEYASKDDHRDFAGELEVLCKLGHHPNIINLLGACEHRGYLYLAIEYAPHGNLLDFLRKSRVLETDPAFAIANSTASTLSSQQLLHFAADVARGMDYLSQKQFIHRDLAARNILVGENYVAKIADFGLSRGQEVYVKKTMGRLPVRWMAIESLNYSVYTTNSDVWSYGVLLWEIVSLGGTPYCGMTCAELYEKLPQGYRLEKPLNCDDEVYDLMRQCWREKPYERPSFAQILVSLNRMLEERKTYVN
Kind of assay: TIE-2 enzyme assay (TIE-2-E2). The format is biochemical. The source says: TIE-2 Enzyme Assay (TIE2-E)
The TIE-2 enzyme assay uses the LANCE method (Wallac) and GST-TIE2, baculovirus expressed recombinant constructs of the intracellular domains of human TIE2 (amino acids 762-1104, GenBank Accession # L06139) tagged by GST). The method measures the ability of the purified enzymes to catalyse the transfer of the γ-phosphate from ATP onto tyrosine residues in a biotinylated synthetic peptide, D1-15 (biotin-C6-LEARLVAYEGWVAGKKKamide). This peptide phosphorylation is detected using the following procedure: for enzyme preactivation, GST-TIE2 is incubated for 30 mins at room temperature with 2 mM ATP, 5 mM MgCl2 and 12.5 mM DTT in 22.5 mM HEPES buffer (pH7.4). Preactivated GST-TIE2 is incubated for 30 mins at room temperature in 96 well plates with 1 uM D1-15 peptide, 80 uM ATP, 10 mM MgCl2, 0.1 mg/ml BSA and the test compound (diluted from a 10 mM stock in DMSO, final DMSO concentration is 2.4%) in 1 mM HEPES (pH7.4). The reaction is stopped by the addition of EDTA (final concentration 45 mM). Streptavidin linked-APC (allophycocyanin, Molecular Probe) and Europium-labeled anti-phosphorylated tyrosine antibody (Wallac) are then added at the final concentration of 17 ug/well and 2.1 ug/well, respectively. The APC signal is measured using an ARVO multilabel counter. […] The percent inhibition of activity is calculated relative to blank control wells. […]

The target in the next assay is T3, GST-VEGFR2 (Homo sapiens, UniProt P35968).
T3 construct: recombinant constructs of the intracellular domains of human TIE2 tagged by GST; made in house
T3 sequence (P35968 786-1356 limits assumed): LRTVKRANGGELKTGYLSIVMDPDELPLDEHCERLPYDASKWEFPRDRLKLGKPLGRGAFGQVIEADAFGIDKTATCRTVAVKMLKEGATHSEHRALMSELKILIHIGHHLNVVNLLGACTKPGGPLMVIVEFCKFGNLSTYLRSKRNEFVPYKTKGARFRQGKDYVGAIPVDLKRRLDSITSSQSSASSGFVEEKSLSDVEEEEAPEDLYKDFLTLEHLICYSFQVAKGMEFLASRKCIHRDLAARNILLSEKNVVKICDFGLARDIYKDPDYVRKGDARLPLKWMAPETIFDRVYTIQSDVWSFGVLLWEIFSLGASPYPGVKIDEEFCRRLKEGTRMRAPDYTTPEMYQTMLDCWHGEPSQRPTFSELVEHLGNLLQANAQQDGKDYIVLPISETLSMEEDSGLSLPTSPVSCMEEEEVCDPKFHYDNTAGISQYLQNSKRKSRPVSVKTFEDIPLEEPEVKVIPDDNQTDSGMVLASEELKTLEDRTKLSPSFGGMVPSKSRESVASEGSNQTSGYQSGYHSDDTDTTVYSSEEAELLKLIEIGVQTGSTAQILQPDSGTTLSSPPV
The assay can be described thus: VEGF-R2 enzyme assay (VEGFR-2-E2), LANCE method. The format is biochemical. To be noted: 75 uM ATP. The text has this: VEGF-R2 Enzyme Assay (VEGFR-2-E2)
The VEGF enzyme assay uses the LANCE method (Wallac) and GST-VEGFR2, baculovirus expressed recombinant constructs of the intracellular domains of […] tagged by GST. The method measures the ability of the purified enzymes to catalyse the transfer of the γ-phosphate from ATP onto tyrosine residues in a biotinylated synthetic peptide, (biotin-aminohexyl-EEEEYFELVAKKKK-NH2). This peptide phosphorylation is detected using the following procedure: GST-VEGFR2 is incubated for 40-60 mins at room temperature with 75 uM ATP, 5 mM MgCl2, 0.1 mM DTT, 0.1 mg/mL BSA and the test compound (diluted from a 10 mM stock in DMSO for desired concentration) in 100 mM HEPES buffer. The reaction is stopped by the addition of EDTA (final concentration 50 mM). Streptavidin linked-APC (allophycocyanin, Molecular Probe) and Europium-labeled anti-phosphorylated tyrosine antibody (Wallac) are then added at the final concentration of 15 nM and 1 nM, respectively. The APC signal is measured using an ARVO multilabel counter (Wallac Berthold, Japan). The percent inhibition of activity is calculated relative to blank control wells. The concentration of test compound that inhibits 50% of activity (IC50) is interpolated using nonlinear regression (Levernberg-Marquardt) and the equation, y=Vmax (1−x/(K+x))+Y2, where “K” is equal to the IC50. […]

The subject of assay [3] is Human umbilical cord endothelial cells (HUVEC). The assay can be described thus: VEGF-driven cellular proliferation assay: BrdU incorporation assay (VEGF-C). Format: cell-based. To be noted: read-out: VEGF-C pIC50 (converted). The procedure: VEGF-driven Cellular Proliferation Assay: BrdU Incorporation Assay (VEGF-C)
Human umbilical cord endothelial cells (HUVEC, Clonetics, CC2519) are passaged in Type I collagen-coated 100-mm petridishes in EGM-MV medium (Clonetics, CC3125) at 37 C. in a humidified 5% CO2, 95% air incubator. (HUVEC passaged more than 6 times in vitro are discarded and not subjected to assaying.) The cells are harvested using trypsin/EDTA, counted using a haemocytometer and plated at 5000 cells/well in a Type I-collagen coated 96-well plate (Becton Dickinson, 354407) in M199 medium (Gibco BRL, 12340-030) containing 5% FBS (Hyclone, A 1115-L) and gentamicin (at 50 ug/ml, Gibco BRL). After incubation overnight at 37° C., the media are replaced with 100 ul of M199 serum-free medium containing compounds at various concentrations with 0.6% DMSO and gentamicin. The compounds are diluted in serum-free M199 medium from 10 mM stock solutions prepared in 100% DMSO. […] The incorporation of BrdU into the proliferating HUVEC are analyzed using BrdU Cell Proliferation ELISA (Roche Molecular Biochemicals, 1647229) according to the manufacturer's protocols. The optical density at 450 nm is measured with a multilabel counter (ARVO SX, Wallac). The percent inhibition of cell growth is calculated relative to blank control wells. […]

Another assay concerns the target Recombinant GST-Tie2 (Homo sapiens, UniProt Q02763). The assay can be described thus: Tie2 fluorescence polarization kinase activity assay (TIE2-FP). The format is biochemical. To be noted: 200 μM ATP, activated enzyme; read-out: TIE2-FP pIC50 (converted). The method, then: Tie2 Fluorescence Polarization Kinase Activity Assay (TIE2-FP) Activation of Recombinant Tie2 Activation: Recombinant GST-Tie2 is activated by incubating the enzyme in 20 mM Tris-HCl, pH7.5, 12 mM MgCl2, 100 mM NaCl, 20 μM sodium vanidate, 1 mM DTT and 300 μM ATP at room temperature for 2 hours. The activation mixture is then passed through a NAP-25 desalting column (Pharmacia Biotech cat. no. 17-0852-02) to remove the free ATP. The activated enzyme is stored as aliquots at−80° C. in 20mM Tris-HCl, pH7.5 and 100 mM NaCl. Assay Conditions: The final assay conditions are 50 mM HEPES, pH7.5, 5% DMSO (when screening compounds), 200 μM ATP, 5mM MgCl2, 1 mM DTT, 50 μM sodium vanidate, 1 nM activated enzyme, and 200 μM peptide. IC50's of compounds are measured under subsaturating ATP (200 μM) and varing concentrations of activated Tie2 and peptide substrate (RFWKYEFWR-OH; MW 1873 Da, TFA salt). Panvera Anti-phosphotyrosine antibody (Cat#P2840) and PTK Green Tracer (Cat#P2842) are used to detect the phosphorylated peptide. Polarization is measured on a TECAN Polarion in 138-second cycles for 30 minutes at room temperature. IC50's are then determined from the % polarization using normal calculation methods. The IC50 values are converted to pIC50 values, i.e.,−log IC50 in Molar concentration.
For orientation: In fluorescence polarisation assays a small probe gives low polarisation when free and higher when bound to something large.

T1 sequence (P35916 with tags, fused parts or gaps isoform P35916-1 H890Q): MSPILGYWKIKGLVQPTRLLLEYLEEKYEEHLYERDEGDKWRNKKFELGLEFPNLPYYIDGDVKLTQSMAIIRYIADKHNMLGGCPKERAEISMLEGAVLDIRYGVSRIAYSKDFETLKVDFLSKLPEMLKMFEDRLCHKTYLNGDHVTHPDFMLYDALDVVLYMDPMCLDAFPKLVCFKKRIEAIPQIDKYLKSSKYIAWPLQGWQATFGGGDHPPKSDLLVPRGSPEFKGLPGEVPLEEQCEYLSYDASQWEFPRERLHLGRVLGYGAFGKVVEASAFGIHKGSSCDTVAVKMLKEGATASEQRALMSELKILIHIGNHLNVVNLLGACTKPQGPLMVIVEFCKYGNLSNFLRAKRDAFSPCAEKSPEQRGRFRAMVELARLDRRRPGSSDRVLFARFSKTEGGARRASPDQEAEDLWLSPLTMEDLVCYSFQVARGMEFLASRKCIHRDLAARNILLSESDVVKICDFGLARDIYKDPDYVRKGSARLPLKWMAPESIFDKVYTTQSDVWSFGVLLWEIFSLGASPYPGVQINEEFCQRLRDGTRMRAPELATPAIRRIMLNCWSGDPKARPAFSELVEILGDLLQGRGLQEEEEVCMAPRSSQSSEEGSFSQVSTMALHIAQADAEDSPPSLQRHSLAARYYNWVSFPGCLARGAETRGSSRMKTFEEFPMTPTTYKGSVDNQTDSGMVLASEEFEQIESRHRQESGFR
Sequence of Recombinant GST-Tie2 (Q02763 23-1124): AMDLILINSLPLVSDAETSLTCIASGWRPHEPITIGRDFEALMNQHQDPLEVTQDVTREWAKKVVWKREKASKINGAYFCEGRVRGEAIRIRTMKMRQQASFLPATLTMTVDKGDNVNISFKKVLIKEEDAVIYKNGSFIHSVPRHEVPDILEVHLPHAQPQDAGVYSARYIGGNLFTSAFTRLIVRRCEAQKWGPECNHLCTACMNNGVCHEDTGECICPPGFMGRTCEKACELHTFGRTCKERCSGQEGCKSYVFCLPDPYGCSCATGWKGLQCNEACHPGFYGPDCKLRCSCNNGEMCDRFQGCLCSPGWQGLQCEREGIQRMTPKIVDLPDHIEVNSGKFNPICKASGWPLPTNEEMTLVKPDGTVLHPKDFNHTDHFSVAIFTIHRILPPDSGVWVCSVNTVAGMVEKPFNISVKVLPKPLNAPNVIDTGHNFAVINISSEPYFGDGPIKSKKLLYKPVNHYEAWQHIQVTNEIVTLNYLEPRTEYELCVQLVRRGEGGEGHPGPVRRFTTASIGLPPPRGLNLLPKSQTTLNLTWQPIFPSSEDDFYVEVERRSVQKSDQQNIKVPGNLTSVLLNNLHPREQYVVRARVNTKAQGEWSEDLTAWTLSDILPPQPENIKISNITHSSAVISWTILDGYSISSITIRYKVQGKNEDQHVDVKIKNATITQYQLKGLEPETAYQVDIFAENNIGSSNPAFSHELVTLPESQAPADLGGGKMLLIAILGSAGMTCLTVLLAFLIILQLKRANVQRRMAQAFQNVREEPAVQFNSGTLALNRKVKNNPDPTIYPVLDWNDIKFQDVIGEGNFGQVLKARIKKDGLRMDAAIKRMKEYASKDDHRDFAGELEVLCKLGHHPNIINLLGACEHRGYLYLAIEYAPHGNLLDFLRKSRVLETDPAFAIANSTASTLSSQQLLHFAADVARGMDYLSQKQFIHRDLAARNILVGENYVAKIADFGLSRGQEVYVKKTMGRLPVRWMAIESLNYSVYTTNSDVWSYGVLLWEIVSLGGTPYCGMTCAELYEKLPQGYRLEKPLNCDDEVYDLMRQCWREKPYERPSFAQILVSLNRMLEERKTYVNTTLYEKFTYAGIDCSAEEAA

On to `CC(C)(C)c1cc(NC(=O)Nc2ccc(-c3nn(C(C)(C)C)c(N)c3C(N)=O)cc2)no1` [Example 35, 5-Amino-1-tert-butyl-3-{4-[3-(5-tert-butyl-isoxazol-3-yl)-ureido]-phenyl}-1H-pyrazole-4-carboxylic acid amide], for which the IC50 (in assay [1] (read-out: VEGFR-3-HTRF pIC50 (converted)); in assay [2] (read-out: TIE-2-E2 pIC50 (converted)); at GST-VEGFR2 (read-out: VEGFR-2-E2 pIC50 (converted))) was less than 100 nM each time.

Take `CC(C)(C)n1nc(-c2ccc(NC(=O)Nc3cc(C(F)(F)F)ccc3F)cc2)c(C(N)=O)c1N` [Example 1, 5-Amino-1-tert-butyl-3-{4-[3-(2-fluoro-5-trifluoromethyl-phenyl)-ureido]-phenyl}-1H-pyrazole-4-carboxylic acid amide]: the IC50 (in assay [3]; on Recombinant GST-Tie2) was less than 100 nM each time.

As for “N,N-Dimethylamino-{4-[3-(fluoro-trifluoromethyl-phenyl)-ureido]-phenyl}-methyl-1H-pyrazole-4-carboxylic acid amide [Example 34]”, the “VEGFR-3-HTRF pIC50” value in assay [1] is “+ (+ = pIC50 of 5.0-6.0)”. In assay [2], the “TIE-2-E2 pIC50” value is “+++ (+++ = pIC50 > 7.0)”. Besides, the “VEGFR-2-E2 pIC50” value on GST-VEGFR2 is recorded as “+ (+ = pIC50 of 5.0-6.0)”.
